From patent US10857163B1, “Compositions that preferentially potentiate subtypes of GABAA receptors and methods of use thereof” (priority 2019, dated 2020)

Key:
α1β1γ2 GABAA receptor = target: T1, α1β1γ2 GABAA receptor (Homo sapiens, UniProt P14867+P18505+P18507); assay: FLIPR modulation of GABAA receptor subtype in expressing cells; type: cell-based; conditions: cells exposed to GABA plus compound, — = value not measurable
T1 construct: expressed in transfected cells
Protocol: (§1) Cells expressing the indicated GABAA receptor subtype were exposed to gamma-aminobutyric acid in the presence of varying concentrations of either CV-10155 or SPNC-019, calcium flux was measured using a fluorometric imaging plate reader (FLIPR), and EC50 values for compounds were determined.

α1β2γ2 GABAA receptor [1] = target: T2, α1β2γ2 GABAA receptor (Homo sapiens, UniProt P14867+P18507+P47870); assay: as above; type: cell-based; conditions: cells exposed to GABA plus compound, — = value not measurable
T2 construct: expressed in transfected cells
T2 sequence (P14867 28-456): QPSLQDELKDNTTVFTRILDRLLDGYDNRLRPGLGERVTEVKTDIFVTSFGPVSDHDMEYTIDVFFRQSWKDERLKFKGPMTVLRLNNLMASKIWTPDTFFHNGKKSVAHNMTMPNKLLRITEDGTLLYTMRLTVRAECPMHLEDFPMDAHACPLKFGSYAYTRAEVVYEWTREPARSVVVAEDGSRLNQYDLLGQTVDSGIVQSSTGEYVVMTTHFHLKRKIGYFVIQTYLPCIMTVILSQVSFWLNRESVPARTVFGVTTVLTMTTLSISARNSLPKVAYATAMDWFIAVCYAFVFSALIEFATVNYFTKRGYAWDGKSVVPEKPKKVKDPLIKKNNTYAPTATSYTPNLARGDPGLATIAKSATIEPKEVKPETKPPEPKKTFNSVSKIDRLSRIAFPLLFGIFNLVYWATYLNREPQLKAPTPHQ
T2 sequence (P47870 25-512 limits assumed): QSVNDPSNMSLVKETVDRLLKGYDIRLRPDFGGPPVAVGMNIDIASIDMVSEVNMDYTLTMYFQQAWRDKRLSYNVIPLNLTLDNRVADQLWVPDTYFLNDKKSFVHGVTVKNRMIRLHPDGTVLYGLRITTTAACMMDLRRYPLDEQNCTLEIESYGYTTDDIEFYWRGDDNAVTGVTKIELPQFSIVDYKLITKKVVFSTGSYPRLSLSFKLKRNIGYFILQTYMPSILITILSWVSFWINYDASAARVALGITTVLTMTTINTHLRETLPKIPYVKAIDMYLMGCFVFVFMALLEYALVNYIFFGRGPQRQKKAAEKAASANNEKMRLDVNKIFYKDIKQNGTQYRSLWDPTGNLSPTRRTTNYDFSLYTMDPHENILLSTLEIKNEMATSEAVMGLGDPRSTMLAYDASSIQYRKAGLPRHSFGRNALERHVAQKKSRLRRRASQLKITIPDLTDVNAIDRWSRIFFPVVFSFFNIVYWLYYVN
T2 sequence (P18507 40-475): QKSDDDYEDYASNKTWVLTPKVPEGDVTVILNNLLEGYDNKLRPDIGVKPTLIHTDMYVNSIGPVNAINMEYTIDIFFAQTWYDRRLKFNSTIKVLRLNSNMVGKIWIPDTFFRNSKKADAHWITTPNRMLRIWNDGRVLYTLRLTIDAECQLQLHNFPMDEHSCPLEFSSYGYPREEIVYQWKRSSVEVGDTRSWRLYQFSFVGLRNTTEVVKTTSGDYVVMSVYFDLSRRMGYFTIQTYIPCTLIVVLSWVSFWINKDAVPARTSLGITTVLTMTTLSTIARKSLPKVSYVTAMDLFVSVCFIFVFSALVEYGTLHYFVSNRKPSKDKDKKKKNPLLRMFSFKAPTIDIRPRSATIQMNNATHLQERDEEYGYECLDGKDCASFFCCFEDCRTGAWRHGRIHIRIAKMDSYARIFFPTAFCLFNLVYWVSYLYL
Protocol: as §1

α1β3γ2 GABAA receptor = target: T3, α1β3γ2 GABAA receptor (Homo sapiens, UniProt P14867+P18507+P28472); assay: as above; type: cell-based; conditions: cells exposed to GABA plus compound, — = value not measurable
T3 construct: expressed in transfected cells
T3 sequence (P14867 28-456): as the sequence (P14867 28-456) above
T3 sequence (P28472 26-473): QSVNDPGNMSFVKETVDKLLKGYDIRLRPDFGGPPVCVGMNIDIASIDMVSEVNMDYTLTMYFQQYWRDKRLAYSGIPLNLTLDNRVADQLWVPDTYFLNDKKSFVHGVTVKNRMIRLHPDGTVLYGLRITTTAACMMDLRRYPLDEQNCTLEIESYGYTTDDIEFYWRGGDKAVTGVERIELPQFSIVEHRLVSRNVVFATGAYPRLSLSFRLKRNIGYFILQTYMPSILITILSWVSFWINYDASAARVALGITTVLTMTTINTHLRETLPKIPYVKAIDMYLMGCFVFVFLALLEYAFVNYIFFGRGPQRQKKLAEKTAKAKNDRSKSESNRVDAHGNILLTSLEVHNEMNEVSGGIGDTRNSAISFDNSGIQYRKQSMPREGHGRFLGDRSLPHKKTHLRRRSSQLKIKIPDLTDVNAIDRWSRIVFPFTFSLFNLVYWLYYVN
T3 sequence (P18507 40-475): as the sequence (P18507 40-475) above
Protocol: as §1

α2β1γ2 GABAA receptor = target: T4, α2β1γ2 GABAA receptor (Homo sapiens, UniProt P18505+P18507+P47869); assay: as above; type: cell-based; conditions: cells exposed to GABA plus compound, — = value not measurable
T4 construct: expressed in transfected cells
Protocol: as §1

α2β2γ2 GABAA receptor = target: T5, α2β2γ2 GABAA receptor (Homo sapiens, UniProt P18507+P47869+P47870); assay: as above; type: cell-based; conditions: cells exposed to GABA plus compound, — = value not measurable
T5 construct: expressed in transfected cells
T5 sequence (P47869 29-451): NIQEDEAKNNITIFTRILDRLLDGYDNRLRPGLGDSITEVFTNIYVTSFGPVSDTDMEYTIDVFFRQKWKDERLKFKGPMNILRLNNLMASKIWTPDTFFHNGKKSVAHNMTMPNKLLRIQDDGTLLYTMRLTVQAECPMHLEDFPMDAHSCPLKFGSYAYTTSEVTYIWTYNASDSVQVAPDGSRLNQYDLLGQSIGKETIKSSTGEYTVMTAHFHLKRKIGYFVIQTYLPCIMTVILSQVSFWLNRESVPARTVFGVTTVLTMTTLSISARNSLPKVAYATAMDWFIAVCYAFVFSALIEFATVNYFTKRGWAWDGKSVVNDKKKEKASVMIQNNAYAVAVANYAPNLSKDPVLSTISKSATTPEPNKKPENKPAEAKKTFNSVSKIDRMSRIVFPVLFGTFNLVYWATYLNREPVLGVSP
T5 sequence (P47870 25-512 limits assumed): as the sequence (P47870 25-512 limits assumed) above
T5 sequence (P18507 40-475): as the sequence (P18507 40-475) above
Protocol: as §1

α2β3γ2 GABAA receptor = target: T6, α2β3γ2 GABAA receptor (Homo sapiens, UniProt P18507+P28472+P47869); assay: as above; type: cell-based; conditions: cells exposed to GABA plus compound, — = value not measurable
T6 construct: expressed in transfected cells
T6 sequence (P47869 29-451): as the sequence (P47869 29-451) above
T6 sequence (P28472 26-473): as the sequence (P28472 26-473) above
T6 sequence (P18507 40-475): as the sequence (P18507 40-475) above
Protocol: as §1

α3β1γ2 GABAA receptor = target: T7, α3β1γ2 GABAA receptor (Homo sapiens, UniProt P18505+P18507+P34903); assay: as above; type: cell-based; conditions: cells exposed to GABA plus compound, — = value not measurable
T7 construct: expressed in transfected cells
Protocol: as §1

α3β2γ2 GABAA receptor = target: T8, α3β2γ2 GABAA receptor (Homo sapiens, UniProt P18507+P34903+P47870); assay: as above; type: cell-based; conditions: cells exposed to GABA plus compound, — = value not measurable
T8 construct: expressed in transfected cells
Protocol: as §1

α3β3γ2 GABAA receptor = target: T9, α3β3γ2 GABAA receptor (Homo sapiens, UniProt P18507+P28472+P34903); assay: as above; type: cell-based; conditions: cells exposed to GABA plus compound, — = value not measurable
T9 construct: expressed in transfected cells
Protocol: as §1

α4β1γ2 GABAA receptor = target: T10, α4β1γ2 GABAA receptor (Homo sapiens, UniProt P18505+P18507+P48169); assay: as above; type: cell-based; conditions: cells exposed to GABA plus compound, — = value not measurable
T10 construct: expressed in transfected cells
Protocol: as §1

α4β3γ2 GABAA receptor = target: T11, α4β3γ2 GABAA receptor (Homo sapiens, UniProt P18507+P28472+P48169); assay: as above; type: cell-based; conditions: cells exposed to GABA plus compound, — = value not measurable
T11 construct: expressed in transfected cells
T11 sequence (P48169 36-554): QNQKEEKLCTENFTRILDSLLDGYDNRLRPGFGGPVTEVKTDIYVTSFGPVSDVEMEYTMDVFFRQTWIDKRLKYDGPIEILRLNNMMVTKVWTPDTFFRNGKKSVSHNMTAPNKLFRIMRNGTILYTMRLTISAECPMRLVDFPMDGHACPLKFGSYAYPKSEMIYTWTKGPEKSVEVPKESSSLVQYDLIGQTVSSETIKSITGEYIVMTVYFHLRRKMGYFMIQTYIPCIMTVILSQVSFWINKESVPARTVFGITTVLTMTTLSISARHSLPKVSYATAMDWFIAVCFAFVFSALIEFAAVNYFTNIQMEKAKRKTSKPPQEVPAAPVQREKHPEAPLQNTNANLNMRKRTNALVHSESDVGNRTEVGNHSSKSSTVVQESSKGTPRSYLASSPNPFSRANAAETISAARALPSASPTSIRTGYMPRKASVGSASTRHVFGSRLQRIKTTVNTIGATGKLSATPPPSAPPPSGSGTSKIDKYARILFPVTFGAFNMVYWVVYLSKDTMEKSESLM
T11 sequence (P28472 26-473): as the sequence (P28472 26-473) above
T11 sequence (P18507 40-475): as the sequence (P18507 40-475) above
Protocol: as §1

α5β1γ2 GABAA receptor = target: T12, α5β1γ2 GABAA receptor (Homo sapiens, UniProt P18505+P18507+P31644); assay: as above; type: cell-based; conditions: cells exposed to GABA plus compound, — = value not measurable
T12 construct: expressed in transfected cells
Protocol: as §1

α5β2γ2 GABAA receptor = target: T13, α5β2γ2 GABAA receptor (Homo sapiens, UniProt P18507+P31644+P47870); assay: as above; type: cell-based; conditions: cells exposed to GABA plus compound, — = value not measurable
T13 construct: expressed in transfected cells
T13 sequence (P31644 32-462): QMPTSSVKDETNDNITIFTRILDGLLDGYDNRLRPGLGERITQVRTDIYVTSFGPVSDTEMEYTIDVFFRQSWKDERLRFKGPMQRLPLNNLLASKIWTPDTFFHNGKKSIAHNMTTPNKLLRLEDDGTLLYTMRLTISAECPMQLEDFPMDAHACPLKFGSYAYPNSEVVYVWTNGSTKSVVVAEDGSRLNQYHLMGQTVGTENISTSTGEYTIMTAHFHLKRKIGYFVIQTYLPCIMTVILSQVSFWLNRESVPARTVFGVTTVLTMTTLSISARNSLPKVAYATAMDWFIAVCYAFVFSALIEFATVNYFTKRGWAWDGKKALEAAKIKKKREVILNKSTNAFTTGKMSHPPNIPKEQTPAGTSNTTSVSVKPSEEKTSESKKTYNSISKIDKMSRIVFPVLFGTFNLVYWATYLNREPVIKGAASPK
T13 sequence (P47870 25-512 limits assumed): as the sequence (P47870 25-512 limits assumed) above
T13 sequence (P18507 40-475): as the sequence (P18507 40-475) above
Protocol: as §1

α5β3γ2 GABAA receptor = target: T14, α5β3γ2 GABAA receptor (Homo sapiens, UniProt P18507+P28472+P31644); assay: as above; type: cell-based; conditions: cells exposed to GABA plus compound, — = value not measurable
T14 construct: expressed in transfected cells
T14 sequence (P31644 32-462): as the sequence (P31644 32-462) above
T14 sequence (P28472 26-473): as the sequence (P28472 26-473) above
T14 sequence (P18507 40-475): as the sequence (P18507 40-475) above
Protocol: as §1

α6β1γ2 GABAA receptor = target: T15, α6β1γ2 GABAA receptor (Homo sapiens, UniProt P18505+P18507+Q16445); assay: as above; type: cell-based; conditions: cells exposed to GABA plus compound, — = value not measurable
T15 construct: expressed in transfected cells
Protocol: as §1

α6β2γ2 GABAA receptor = target: T16, α6β2γ2 GABAA receptor (Homo sapiens, UniProt P18507+P47870+Q16445); assay: as above; type: cell-based; conditions: cells exposed to GABA plus compound, — = value not measurable
T16 construct: expressed in transfected cells
Protocol: as §1

α6β3γ2 GABAA receptor = target: T17, α6β3γ2 GABAA receptor (Homo sapiens, UniProt P18507+P28472+Q16445); assay: as above; type: cell-based; conditions: cells exposed to GABA plus compound, — = value not measurable
T17 construct: expressed in transfected cells
T17 sequence (Q16445 20-453): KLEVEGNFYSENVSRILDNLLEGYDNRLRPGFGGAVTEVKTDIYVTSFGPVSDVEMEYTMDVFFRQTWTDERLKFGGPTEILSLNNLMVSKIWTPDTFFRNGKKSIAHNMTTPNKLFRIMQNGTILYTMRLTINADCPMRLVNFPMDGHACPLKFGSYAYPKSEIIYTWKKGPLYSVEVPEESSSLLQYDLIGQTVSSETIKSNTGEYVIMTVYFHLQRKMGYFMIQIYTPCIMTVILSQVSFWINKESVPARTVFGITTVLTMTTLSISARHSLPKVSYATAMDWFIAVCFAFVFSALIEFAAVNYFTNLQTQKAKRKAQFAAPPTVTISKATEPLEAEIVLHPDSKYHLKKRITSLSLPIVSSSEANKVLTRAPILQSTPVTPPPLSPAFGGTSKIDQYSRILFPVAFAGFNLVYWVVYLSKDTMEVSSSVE
T17 sequence (P28472 26-473): as the sequence (P28472 26-473) above
T17 sequence (P18507 40-475): as the sequence (P18507 40-475) above
Protocol: as §1

GABAA receptor subtypes = assay: FLIPR panel of 18 GABAA receptor subtypes, overall statement; type: cell-based; conditions: 18 subtypes
Protocol: as §1
The only structural difference between CV-10155 and SPNC-019 is the stereochemical configuration of the hydroxyl and methyl groups attached to the carbon atom at position 3 of the steroid core. […] The results further indicate that the isomeric purity of neurosteroid compositions greatly impacts the utility of such compositions as therapeutic agents.

α4β3δ GABAA receptor [2] = target: T18, α4β3δ GABAA receptor (Homo sapiens, UniProt O14764+P28472+P48169); assay: FLIPR modulation of GABAA receptor subtype in expressing cells; type: cell-based; parameters: expressed in transfected cells
T18 sequence (P48169 36-554): as the sequence (P48169 36-554) above
T18 sequence (P28472 26-473): as the sequence (P28472 26-473) above
T18 sequence (O14764 25-452): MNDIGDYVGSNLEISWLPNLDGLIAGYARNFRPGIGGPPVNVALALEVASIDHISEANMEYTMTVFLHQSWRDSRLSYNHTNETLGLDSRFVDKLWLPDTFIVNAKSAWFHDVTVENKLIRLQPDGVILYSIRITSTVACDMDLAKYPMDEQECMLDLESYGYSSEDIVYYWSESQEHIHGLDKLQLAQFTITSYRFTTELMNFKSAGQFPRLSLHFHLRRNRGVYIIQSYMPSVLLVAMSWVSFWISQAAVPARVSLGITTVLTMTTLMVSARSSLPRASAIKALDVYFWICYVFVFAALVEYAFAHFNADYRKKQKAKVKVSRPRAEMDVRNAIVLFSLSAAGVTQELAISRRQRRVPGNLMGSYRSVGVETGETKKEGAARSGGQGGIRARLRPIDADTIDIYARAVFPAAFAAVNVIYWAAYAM
Protocol: as §1

[3] = target: picrotoxin binding site of GABAA receptors; conditions: membranes isolated from the cortices of rat brains; Table 1 of WO 2016/061527; read-out: IC50 in the TBPS displacement assay; cited from earlier work
α1β2γ2 GABAA receptor [4] = target: T2, α1β2γ2 GABAA receptor; conditions: 10 μM neurosteroid, GABA 2 μM (EC20), LTK cells; Table 2 of WO 2016/061527; cited from earlier work
α4β3δ GABAA receptor [5] = target: T18, α4β3δ GABAA receptor; parameters: expressed in transfected cells; host or cells: CHO cells (transient); conditions: 10 μM neurosteroid, GABA 2 μM (EC20), CHO cells; Table 2 of WO 2016/061527; cited from earlier work

Which results are given for C[C@@]1(O)CC[C@@]2(C)[C@@H](CC[C@@H]3[C@@H]2CC[C@]2(C)[C@@H](C(=O)Cn4cc(C#N)cn4)CC[C@@H]32)C1 [CV-10155]?
EC50 (α1β1γ2 GABAA receptor): 0.521 µM; EC50 (α1β2γ2 GABAA receptor [1]): 0.839 µM; EC50 (α1β3γ2 GABAA receptor): 0.52 µM; EC50 (α2β1γ2 GABAA receptor): 0.253 µM; EC50 (α2β2γ2 GABAA receptor): 0.213 µM; EC50 (α2β3γ2 GABAA receptor): 0.296 µM; EC50 (α3β1γ2 GABAA receptor): 0.946 µM; EC50 (α3β2γ2 GABAA receptor): 1.82 µM; EC50 (α3β3γ2 GABAA receptor): 0.273 µM; EC50 (α4β1γ2 GABAA receptor): 0.204 µM; EC50 (α4β3γ2 GABAA receptor): 1.33 µM; EC50 (α5β1γ2 GABAA receptor): 0.762 µM; EC50 (α5β2γ2 GABAA receptor): 0.359 µM; EC50 (α5β3γ2 GABAA receptor): 1.3 µM; EC50 (α6β1γ2 GABAA receptor): 0.359 µM; EC50 (α6β2γ2 GABAA receptor): 1.1 µM; EC50 (α6β3γ2 GABAA receptor): 0.245 µM; modulating activity across the GABAA receptor subtypes tested (GABAA receptor subtypes): some level of positive allosteric modulating activity in all of the GABAA receptor subtypes tested; EC50 (α4β3δ GABAA receptor [2]; FLIPR, cells exposed to GABA plus compound, — = value not measurable): 0.106 µM; activity on α4β3δ compared with α1β2γ2 GABAA receptors, in words (α4β3δ GABAA receptor [2]; data of Example 1): substantially more active on α4β3δ GABAA receptors than on α1β2γ2 GABAA receptors; EC50 for α4β3δ receptors lower than for α1β2γ2 receptors (α4β3δ GABAA receptor [2]; isomerically pure composition, α4β3δ versus α1β2γ2): at least 5 fold

Which IC50 [3] does the source give for C[C@@]1(O)CC[C@@]2(C)[C@H](CC[C@@H]3[C@@H]2CC[C@]2(C)[C@@H](C(=O)Cn4cc(C#N)cn4)CC[C@@H]32)C1 [Compound 10] here?
The IC50 was under 0.01 µM.

Which IC50 [3] does the source give for C[C@@]1(O)CC[C@@]2(C)[C@@H](CC[C@@H]3[C@@H]2CC[C@]2(C)[C@@H](C(=O)Cn4ccc(C#N)n4)CC[C@@H]32)C1 [Compound 121] here?
Its IC50 is 0.01 to 0.05 µM.

What about the “efficacy: relative potentiation of GABA-mediated conductance, α1β2γ2” value (α1β2γ2 GABAA receptor [4]) of the same compound?
Its value is over 500%.

What about the “efficacy: relative potentiation of GABA-mediated conductance, α4β3δ” value (α4β3δ GABAA receptor [5]) of the same compound?
Its value is over 500%.

Which EC50 (α5β2γ2 GABAA receptor) does the source give for C[C@]1(O)CC[C@@]2(C)[C@@H](CC[C@@H]3[C@@H]2CC[C@]2(C)[C@@H](C(=O)Cn4cc(C#N)cn4)CC[C@@H]32)C1 [SPNC-019, reference compound] here?
Its EC50 is 1.2 µM.

What about the EC50 (α5β3γ2 GABAA receptor) of the same compound?
The EC50 was 1.81 µM.

And the EC50 (α6β3γ2 GABAA receptor)?
Its EC50 is 1.77 µM.

What about the “modulating activity across the GABAA receptor subtypes tested” value (GABAA receptor subtypes) of the same compound?
The value was “no modulating activity in 15 of the 18 GABAA receptor subtypes tested”.
